# Reference: patent US20070128179A1 (priority 2005, published 2007)
# Where two headings read alike, the source gives them in different places. No end group written: not given here.
# Key:
# [1] = tested on: B. pseudomallei (strain KHW); settings: 24 h
# [2] = tested on: B. pseudomallei (strain TES); test: microbe, parasite or virus in culture; assay type: cell-based, Burkholderia pseudomallei; settings: 24 h; for MIC: Burkholderia pseudomallei, read-out: MIC (breaking point)
# [3] = tested on: severe meloidosis patients; settings: human, in vivo; cited from earlier work
# [4] = tested on: B. pseudomallei (strain KHW); test: microbe, parasite or virus in culture; settings: Burkholderia pseudomallei, 24 h, read-out: MIC (breaking point)
# [5] = tested on: THP-1 cells; assay type: cell-based, Human
# [6] = tested on: Enterobacter aerogenes; assay type: cell-based
# [7] = tested on: Pseudomonas aeruginosa; assay type: cell-based
# [8] = tested on: Proteus mirabilis; assay type: cell-based
# [9] = tested on: Staphylococcus aureus; assay type: cell-based
# [10] = tested on: Proteus vulgaris; assay type: cell-based
# [11] = tested on: Escherichia coli; assay type: cell-based
# [12] = tested on: human red blood cells
# [13] = tested on: THP-1 cells (Human macrophage)
# [14] = tested on: 23 tested strains; settings: cited from earlier work
# [15] = tested on: Burkholderia cepacia; settings: 50 μg/mL; cited from earlier work
compound,measurement,setting,value
CC(C)(O/N=C(\C(=O)N[C@@H]1C(=O)N2C(C(=O)[O-])=C(C[n+]3ccccc3)CS[C@H]12)c1csc(N)n1)C(=O)O [Ceftazidime],"optical density (560 nm) of bacterial growth, strain KHW",[1]; 0.03125 mg/mL,0.44
same,"percentage in parentheses (susceptibility), strain KHW",[1]; 0.03125 mg/mL,(22%)
same,"optical density (560 nm) of bacterial growth, strain KHW",[1]; 0.0625 mg/mL,0.24
same,"percentage in parentheses (susceptibility), strain KHW",[1]; 0.0625 mg/mL,(24%)
same,"optical density (560 nm) of bacterial growth, strain KHW",[1]; 0.125 mg/mL,0.04
same,"percentage in parentheses (susceptibility), strain KHW",[1]; 0.125 mg/mL,(62%)
same,"optical density (560 nm) of bacterial growth, strain KHW",[1]; 0.25 mg/mL,0.05
same,"percentage in parentheses (susceptibility), strain KHW",[1]; 0.25 mg/mL,(61%)
same,"optical density (560 nm) of bacterial growth, strain KHW",[1]; 0.5 mg/mL,0.08
same,"percentage in parentheses (susceptibility), strain KHW",[1]; 0.5 mg/mL,(58%)
same,"optical density (560 nm) of bacterial growth, strain TES",[2]; 0.03125 mg/mL,0.49
same,"percentage in parentheses (susceptibility), strain TES",[2]; 0.03125 mg/mL,(33%)
same,"optical density (560 nm) of bacterial growth, strain TES",[2]; 0.0625 mg/mL,0.35
same,"percentage in parentheses (susceptibility), strain TES",[2]; 0.0625 mg/mL,(47%)
same,"optical density (560 nm) of bacterial growth, strain TES",[2]; 0.125 mg/mL,0.09
same,"optical density (560 nm) of bacterial growth, strain TES",[2]; 0.25 mg/mL,0.03
same,"percentage in parentheses (susceptibility), strain TES",[2]; 0.25 mg/mL,(86%)
same,"optical density (560 nm) of bacterial growth, strain TES",[2]; 0.5 mg/mL,0.01
same,"percentage in parentheses (susceptibility), strain TES",[2]; 0.5 mg/mL,(88%)
same,MIC,[2],125 µg/mL
same,mortality,[3],37%
same,MIC,[4],125 µg/mL
same,gene expression,[5],majority of the genes were up regulated
O=C(N[C@H](CO)[C@H](O)c1ccc([N+](=O)[O-])cc1)C(Cl)Cl [Chloramphenicol],"Size of inhibition zone, Ea (−)",[6],27.8 ± 1.09 mm
same,"optical density (560 nm) of bacterial growth, strain KHW",[1]; 0.03125 mg/mL,0.51
same,"percentage in parentheses (susceptibility), strain KHW",[1]; 0.03125 mg/mL,(1%)
same,"optical density (560 nm) of bacterial growth, strain KHW",[1]; 0.0625 mg/mL,0.42
same,"percentage in parentheses (susceptibility), strain KHW",[1]; 0.0625 mg/mL,(10%)
same,"optical density (560 nm) of bacterial growth, strain KHW",[1]; 0.125 mg/mL,0.07
same,"percentage in parentheses (susceptibility), strain KHW",[1]; 0.125 mg/mL,(60%)
same,"optical density (560 nm) of bacterial growth, strain KHW",[1]; 0.25 mg/mL,0.03
same,"percentage in parentheses (susceptibility), strain KHW",[1]; 0.25 mg/mL,(64%)
same,"optical density (560 nm) of bacterial growth, strain KHW",[1]; 0.5 mg/mL,0.01
same,"percentage in parentheses (susceptibility), strain KHW",[1]; 0.5 mg/mL,(68%)
same,"Size of inhibition zone, Pa (−)",[7],25 ± 0.70 mm
same,"optical density (560 nm) of bacterial growth, strain TES",[2]; 0.03125 mg/mL,0.37
same,"percentage in parentheses (susceptibility), strain TES",[2]; 0.03125 mg/mL,(38%)
same,"optical density (560 nm) of bacterial growth, strain TES",[2]; 0.0625 mg/mL,0.34
same,"percentage in parentheses (susceptibility), strain TES",[2]; 0.0625 mg/mL,(41%)
same,"optical density (560 nm) of bacterial growth, strain TES",[2]; 0.125 mg/mL,0.07
same,"optical density (560 nm) of bacterial growth, strain TES",[2]; 0.25 mg/mL,0.04
same,"percentage in parentheses (susceptibility), strain TES",[2]; 0.25 mg/mL,(73%)
same,"optical density (560 nm) of bacterial growth, strain TES",[2]; 0.5 mg/mL,0.026
same,"percentage in parentheses (susceptibility), strain TES",[2]; 0.5 mg/mL,(74%)
same,MIC,[2],125 µg/mL
same,"Size of inhibition zone, Pm (−)",[8],33 ± 2.34 mm
same,"Size of inhibition zone, Sa (+)",[9],35.1 ± 1.26 mm
same,mortality,[3],74%
same,MIC,[4],125 µg/mL
same,"Size of inhibition zone, Pv (−)",[10],24.6 ± 0.86 mm
same,"Size of inhibition zone, Ec (−)",[11],31.8 ± 1.64 mm
[H]/N=C(/N)N[C@H]1[C@H](O)[C@@H](O)[C@H](O[C@@H]2O[C@@H](C)[C@](O)(C=O)[C@H]2O[C@@H]2O[C@@H](CO)[C@H](O)[C@@H](O)[C@@H]2NC)[C@@H](N/C(N)=N\[H])[C@@H]1O [Streptomycin],"Size of inhibition zone, Ea (−)",[6],15.7 ± 0.44 mm
same,"Size of inhibition zone, Pa (−)",[7],16.5 ± 0.50 mm
same,"Size of inhibition zone, Pm (−)",[8],27.8 ± 1.09 mm
same,"Size of inhibition zone, Sa (+)",[9],30.3 ± 0.77 mm
same,"Size of inhibition zone, Pv (−)",[10],18.2 ± 0.83 mm
same,"Size of inhibition zone, Ec (−)",[11],29.4 ± 0.89 mm
CC[C@H](C)[C@H](NC(=O)CN)C(=O)NCC(=O)N[C@@H](C)C(=O)N[C@H](C(=O)N[C@@H](CC(C)C)C(=O)N[C@@H](CCCCN)C(=O)N[C@H](C(=O)N[C@@H](CC(C)C)C(=O)N[C@H](C(=O)N[C@H](C(=O)NCC(=O)N[C@@H](CC(C)C)C(=O)N1CCC[C@H]1C(=O)N[C@@H](C)C(=O)N[C@@H](CC(C)C)C(=O)N[C@H](C(=O)N[C@@H](CO)C(=O)N[C@@H](Cc1c[nH]c2ccccc12)C(=O)N[C@H](C(=O)N[C@@H](CCCCN)C(=O)N[C@@H](CCCNC(=N)N)C(=O)N[C@@H](CCCCN)C(=O)N[C@@H](CCCNC(=N)N)C(=O)N[C@@H](CCC(N)=O)C(=O)N[C@@H](CCC(N)=O)C(N)=O)[C@@H](C)CC)[C@@H](C)CC)[C@@H](C)O)[C@@H](C)O)C(C)C)C(C)C [melittin],MIC (breaking point),[1],250 µg/mL
Penicillin,"Size of inhibition zone, Ea (−)",[6],18.3 ± 0.85 mm
same,"Size of inhibition zone, Pa (−)",[7],16.6 ± 0.89 mm
same,"Size of inhibition zone, Pm (−)",[8],27.8 ± 1.10 mm
same,"Size of inhibition zone, Sa (+)",[9],17.4 ± 0.89 mm
same,"Size of inhibition zone, Pv (−)",[10],16.7 ± 0.98 mm
same,"Size of inhibition zone, Ec (−)",[11],15.2 ± 0.84 mm
Triton X-100,hemolytic activity,[12],100%
same,cell death,[13],90%
"hBD-3 (GIINTLQKYYCRVRGGRCAVLSCLPKEEQIGKCSTRGRKCCRRKK; ends and bridges not checked; cysteine pairing not given here; UniProt P81534 23-67, looked up)",MBCs,[14],> 100 µg/mL
same,effect,[15],did not show any effect
